Columns and labels:
S. aureus DSM 20231 [1] = assay: fitness (endpoint OD595 vs no drug) (fraction); higher = more growth
How it was run: (§1)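 Fitness was defined as the optical density at the transition into stationary phase relative to the robust mean of no-drug control wells. Values were capped at 1. Cultures were started at OD595 0.01 in 384-well plates (30 µl, or 55 µl for S. pneumoniae) in TSB, LB Lennox or CY at 37 °C. OD595 was recorded every 30 min over 14 h, with the first reading subtracted as background.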

S. aureus Newman [2] = assay: as above
How it was run: as §1

B. subtilis 168 [3] = assay: Bliss interaction score (quartile over a dose matrix) (fitness difference); higher = more antagonism (negative = synergy)
How it was run: (§2)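 Fitness was derived from optical density at entry into stationary phase, divided by the robust mean of the no-drug wells on the same plate. That reading was taken as OD595, and the ratio was capped at 1. Single-drug fitness was inferred from the combination data. The Bliss score, observed fitness minus the expected product of single-drug fitness, was summarised as quartiles over technical, biological and donor/recipient replicates.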

S. aureus DSM 20231 [4] = assay: as above
How it was run: as §2

S. aureus Newman [5] = assay: as above
How it was run: as §2

S. pneumoniae D39V [6] = assay: as above
How it was run: as §2

B. subtilis 168 [7] = assay: fitness (endpoint OD595 vs no drug) (fraction); higher = more growth
How it was run: as §1

S. pneumoniae D39V [8] = assay: as above
How it was run: as §1
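For Bliss interaction score (quartile over a dose matrix) in this document: first quartile when negative (synergy) and third quartile when positive (antagonism).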

O=C(N[C@H](CO)[C@H](O)c1ccc([N+](=O)[O-])cc1)C(Cl)Cl [Chloramphenicol] + COc1ccc(C[C@H](N)C(=O)N[C@H]2[C@@H](O)[C@H](n3cnc4c(N(C)C)ncnc43)O[C@@H]2CO)cc1 [Puromycin]
fitness
Details	first compound 0.75 µg/mL	first compound 1.5 µg/mL	first compound 3 µg/mL
S. aureus DSM 20231 [1], partner 0.39 µg/mL	0.764	–	0.11
S. aureus DSM 20231 [1], partner 0.78 µg/mL	0.759	0.585	0.0684
S. aureus DSM 20231 [1], partner 1.56 µg/mL	0.782	0.455	–
S. aureus Newman [2], partner 0.39 µg/mL	0.764	0.502	0.145
S. aureus Newman [2], partner 0.78 µg/mL	0.777	0.501	0.121
S. aureus Newman [2], partner 1.56 µg/mL	0.807	0.501	–

fitness, S. aureus DSM 20231 [1], one replicate
Details	first compound 0.75 µg/mL	first compound 1.5 µg/mL	first compound 3 µg/mL
partner 3.12 µg/mL	0.771	0.231	0.0598
partner 6.24 µg/mL	0.387	–	0.0594

Details	Bliss interaction score
B. subtilis 168 [3]	-0.0629
S. aureus DSM 20231 [4]	0.0724
S. aureus Newman [5]	-0.111
S. pneumoniae D39V [6]	-0.0967

CCC[C@@H]1C[C@@H](C(=O)N[C@@H]([C@H]2O[C@H](SC)[C@H](O)[C@@H](O)[C@H]2O)[C@@H](C)O)N(C)C1 [Lincomycin] + CC1=C\[C@@H](O)CC(=O)Cc2nc(co2)C(=O)N2CCC=C2C(=O)O[C@H](C(C)C)[C@H](C)/C=C/C(=O)NC\C=C\1 [Virginiamycin M1]
Details	fitness
B. subtilis 168 [7], first compound 0.1 µg/mL, partner 0.0625 µg/mL	0.945
B. subtilis 168 [7], first compound 0.1 µg/mL, partner 0.125 µg/mL	0.936
B. subtilis 168 [7], first compound 0.1 µg/mL, partner 0.25 µg/mL	0.922
B. subtilis 168 [7], first compound 0.2 µg/mL, partner 0.0625 µg/mL	0.91
B. subtilis 168 [7], first compound 0.2 µg/mL, partner 0.125 µg/mL	0.925
B. subtilis 168 [7], first compound 0.2 µg/mL, partner 0.25 µg/mL	0.949
B. subtilis 168 [7], first compound 0.4 µg/mL, partner 0.0625 µg/mL	0.99
B. subtilis 168 [7], first compound 0.4 µg/mL, partner 0.125 µg/mL	0.871
B. subtilis 168 [7], first compound 0.4 µg/mL, partner 0.25 µg/mL	0.985
S. aureus DSM 20231 [1], first compound 0.1 µg/mL, partner 0.0625 µg/mL	0.844
S. aureus DSM 20231 [1], first compound 0.1 µg/mL, partner 0.125 µg/mL	0.857
S. aureus DSM 20231 [1], first compound 0.1 µg/mL, partner 0.25 µg/mL	0.875
S. aureus DSM 20231 [1], first compound 0.2 µg/mL, partner 0.0625 µg/mL	0.73
S. aureus DSM 20231 [1], first compound 0.2 µg/mL, partner 0.125 µg/mL	0.736
S. aureus DSM 20231 [1], first compound 0.2 µg/mL, partner 0.25 µg/mL	0.7
S. aureus DSM 20231 [1], first compound 0.4 µg/mL, partner 0.0625 µg/mL	0.361
S. aureus DSM 20231 [1], first compound 0.4 µg/mL, partner 0.125 µg/mL	0.242
S. aureus DSM 20231 [1], first compound 0.4 µg/mL, partner 0.25 µg/mL	0.267
S. pneumoniae D39V [8], first compound 0.2 µg/mL, partner 2 µg/mL	0.731
S. pneumoniae D39V [8], first compound 0.215 µg/mL, partner 0.5 µg/mL	0.857
S. pneumoniae D39V [8], first compound 0.215 µg/mL, partner 1 µg/mL	0.882
S. pneumoniae D39V [8], first compound 0.215 µg/mL, partner 2 µg/mL	0.836
S. pneumoniae D39V [8], first compound 0.4 µg/mL, partner 2 µg/mL	0.642
S. pneumoniae D39V [8], first compound 0.43 µg/mL, partner 0.5 µg/mL	0.73
S. pneumoniae D39V [8], first compound 0.43 µg/mL, partner 1 µg/mL	0.781
S. pneumoniae D39V [8], first compound 0.43 µg/mL, partner 2 µg/mL	0.741
S. pneumoniae D39V [8], first compound 0.8 µg/mL, partner 2 µg/mL	0.333
S. pneumoniae D39V [8], first compound 0.86 µg/mL, partner 0.5 µg/mL	0.268
S. pneumoniae D39V [8], first compound 0.86 µg/mL, partner 1 µg/mL	0.207
S. pneumoniae D39V [8], first compound 0.86 µg/mL, partner 2 µg/mL	0.195

fitness, one replicate
Details	first compound 0.1 µg/mL	first compound 0.2 µg/mL	first compound 0.4 µg/mL	first compound 0.8 µg/mL
S. aureus DSM 20231 [1], partner 0.5 µg/mL	0.878	0.66	0.3	–
S. aureus DSM 20231 [1], partner 1 µg/mL	0.7	0.486	0.238	–
S. pneumoniae D39V [8], partner 0.15 µg/mL	–	0.807	0.694	0.596
S. pneumoniae D39V [8], partner 0.3 µg/mL	–	0.796	0.657	0.573
S. pneumoniae D39V [8], partner 0.5 µg/mL	–	0.8	0.761	0.449
S. pneumoniae D39V [8], partner 1 µg/mL	–	0.71	0.655	0.416

Details	Bliss interaction score
B. subtilis 168 [3]	-0.0247
S. aureus DSM 20231 [4]	-0.0744
S. aureus Newman [5]	0.0588
S. pneumoniae D39V [6]	-0.0882

— the supplement of paper PMC10627819
